≈ marks a conversion by molar mass, not a printed value.
What was measured:
Cytochrome P450 3A4 [1] = molecular target: T1, Cytochrome P450 3A4 (Homo sapiens, UniProt P08684); experiment: Inhibition of CYP3A4 (unknown origin); format: ADME
Cytochrome P450 2C9 = Cytochrome P450 2C9 (Homo sapiens, UniProt P11712); experiment: Inhibition of CYP2C9 (unknown origin); format: ADME
[2] = Intrinsic clearance in human liver microsomes at 1 uM preincubated for 1 hr followed by NADPH addition and measured by LC/MS/MS analysis; format: ADME, Microsome; details: read-out: CLH
[3] = Intrinsic clearance in human hepatocytes assessed per million cells at 1 uM preincubated for 1 hr followed by NADPH addition and measured by LC/MS/MS analysis; format: ADME, cell-based, Hepatocyte; details: read-out: CLH
Cytochrome P450 2D6 = Cytochrome P450 2D6 (Homo sapiens, UniProt P10635); experiment: Inhibition of CYP2D6 (unknown origin); format: ADME
Cytochrome P450 2D6, sequence (P10635 whole entry): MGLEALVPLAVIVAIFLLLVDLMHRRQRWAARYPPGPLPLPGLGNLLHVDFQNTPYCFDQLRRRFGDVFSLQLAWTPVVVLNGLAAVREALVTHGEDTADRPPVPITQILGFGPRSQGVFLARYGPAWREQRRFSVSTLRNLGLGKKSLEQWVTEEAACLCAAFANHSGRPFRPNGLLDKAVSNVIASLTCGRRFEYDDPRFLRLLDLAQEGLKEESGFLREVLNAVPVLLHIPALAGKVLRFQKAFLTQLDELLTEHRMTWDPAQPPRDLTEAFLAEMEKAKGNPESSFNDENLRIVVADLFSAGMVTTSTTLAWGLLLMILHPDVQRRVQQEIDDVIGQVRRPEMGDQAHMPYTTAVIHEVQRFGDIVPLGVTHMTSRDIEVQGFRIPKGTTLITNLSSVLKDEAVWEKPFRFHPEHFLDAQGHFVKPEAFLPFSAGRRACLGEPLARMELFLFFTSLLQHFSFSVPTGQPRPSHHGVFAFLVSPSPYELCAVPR

[4] = Solubility of the compound by LYSA; format: physicochemical
[5] = molecular target: T2, Tyrosine-protein kinase BTK (Homo sapiens, UniProt Q06187); experiment: Inhibition of BTK in goat F(ab')2 anti-human IgM-stimulated human whole blood assessed as suppression of CD69 expression on B cells pretreated for 30 mins followed by goat F(ab')2 anti-human IgM-stimulation and measured after 20 hrs by flow cytometry; format: tissue-based
T2 sequence (Q06187 whole entry): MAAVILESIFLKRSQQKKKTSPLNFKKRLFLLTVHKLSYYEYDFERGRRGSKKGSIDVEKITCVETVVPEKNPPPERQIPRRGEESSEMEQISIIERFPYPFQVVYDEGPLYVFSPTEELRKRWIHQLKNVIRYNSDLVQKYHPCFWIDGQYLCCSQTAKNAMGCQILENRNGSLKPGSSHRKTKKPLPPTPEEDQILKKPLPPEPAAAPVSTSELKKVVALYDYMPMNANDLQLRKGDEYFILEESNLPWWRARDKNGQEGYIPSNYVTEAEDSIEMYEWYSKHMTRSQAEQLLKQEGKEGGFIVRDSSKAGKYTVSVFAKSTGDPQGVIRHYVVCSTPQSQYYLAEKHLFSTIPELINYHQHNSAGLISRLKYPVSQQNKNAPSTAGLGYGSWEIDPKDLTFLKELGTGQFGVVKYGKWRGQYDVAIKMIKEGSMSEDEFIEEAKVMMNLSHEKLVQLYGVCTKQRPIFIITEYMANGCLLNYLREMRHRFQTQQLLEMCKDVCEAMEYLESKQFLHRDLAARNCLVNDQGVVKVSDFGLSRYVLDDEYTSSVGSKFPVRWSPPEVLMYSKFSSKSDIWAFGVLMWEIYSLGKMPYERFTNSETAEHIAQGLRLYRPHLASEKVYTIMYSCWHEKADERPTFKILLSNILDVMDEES

[6] = molecular target: T2, Tyrosine-protein kinase BTK; experiment: Inhibition of Kinase Tracer 178 binding to biotinylated-BTK (unknown origin) measured after 18 to 24 hrs by Europium-labeled Streptavidin conjugate based TR-FRET assay
Cytochrome P450 3A4 [7] = molecular target: T1, Cytochrome P450 3A4; experiment: Time-dependent inhibition of CYP3A4 (unknown origin); format: ADME
[8] = Intrinsic clearance in rat liver microsomes at 1 uM preincubated for 1 hr followed by NADPH addition and measured by LC/MS/MS analysis; format: ADME, Microsome; details: read-out: CLH
[9] = Intrinsic clearance in rat hepatocytes assessed per million cells at 1 uM preincubated for 1 hr followed by NADPH addition and measured by LC/MS/MS analysis; format: ADME, cell-based, Hepatocyte; details: read-out: CLH

T1 sequence (P08684 whole entry): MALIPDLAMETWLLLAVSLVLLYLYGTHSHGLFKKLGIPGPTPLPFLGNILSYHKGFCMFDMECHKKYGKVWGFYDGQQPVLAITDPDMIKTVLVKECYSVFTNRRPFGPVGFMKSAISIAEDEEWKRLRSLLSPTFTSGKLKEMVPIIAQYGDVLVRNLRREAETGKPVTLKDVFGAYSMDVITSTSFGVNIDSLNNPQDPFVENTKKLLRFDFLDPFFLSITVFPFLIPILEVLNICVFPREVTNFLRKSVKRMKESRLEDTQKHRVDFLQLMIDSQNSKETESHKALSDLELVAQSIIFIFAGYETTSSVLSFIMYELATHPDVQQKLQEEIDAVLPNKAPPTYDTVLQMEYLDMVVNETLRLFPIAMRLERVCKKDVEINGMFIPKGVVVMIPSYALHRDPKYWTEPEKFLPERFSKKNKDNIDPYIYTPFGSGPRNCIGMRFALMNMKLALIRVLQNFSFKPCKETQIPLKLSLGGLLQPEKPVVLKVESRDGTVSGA
Cytochrome P450 2C9, sequence (P11712 whole entry): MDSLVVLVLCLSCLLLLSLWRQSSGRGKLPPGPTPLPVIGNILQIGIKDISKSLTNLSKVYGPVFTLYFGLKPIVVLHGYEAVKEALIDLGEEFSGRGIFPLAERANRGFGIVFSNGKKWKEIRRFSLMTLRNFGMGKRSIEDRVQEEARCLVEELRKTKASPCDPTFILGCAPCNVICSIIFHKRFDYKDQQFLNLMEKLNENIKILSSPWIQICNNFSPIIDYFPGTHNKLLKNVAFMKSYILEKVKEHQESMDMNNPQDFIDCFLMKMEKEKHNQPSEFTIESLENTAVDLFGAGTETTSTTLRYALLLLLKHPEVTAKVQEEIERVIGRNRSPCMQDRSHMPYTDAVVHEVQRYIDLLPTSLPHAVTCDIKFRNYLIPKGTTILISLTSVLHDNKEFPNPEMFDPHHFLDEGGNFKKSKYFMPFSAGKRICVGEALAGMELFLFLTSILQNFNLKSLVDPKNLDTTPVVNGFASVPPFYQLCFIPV

Row | SMILES | INH (Cytochrome P450 3A4 [1]) [µM] | INH (Cytochrome P450 2C9) [µM] | microsomal CLint at 1 µM [2] [µL/min/mg] | hepatocyte CLint at 1 µM [3] [µL/min/1e6 cells] | INH (Cytochrome P450 2D6) [µM] | solubility [4] [µg/mL] | IC50 [5] [nM] | IC50 [6] [nM] | TDI (Cytochrome P450 3A4 [7]) | microsomal CLint at 1 µM [8] [µL/min/mg] | hepatocyte CLint at 1 µM [9] [µL/min/1e6 cells]
1 | Cn1nc(-c2cccc(-n3ncc4cc(C(C)(C)C)cc(F)c4c3=O)c2CO)cc(Nc2ccc(C(=O)N3CCOCC3)cn2)c1=O | > 10 | > 10 | 20 | 0.3 | > 10 | 1.1 (≈ 1.72 µM) | 23 | < 1 | 0% | 29 | 2
2 | Cn1c2c(cc(Nc3ccc(C(=O)N4CCOCC4)cn3)c1=O)-c1cccc(-n3ncc4cc(C(C)(C)C)cc(F)c4c3=O)c1C[C@H](O)C2 |  |  |  |  |  |  |  |  | Not Active |  | 
3 | Cn1c2c(cc(Nc3ccc(C(=O)N4CCOCC4)cn3)c1=O)-c1cccc(-n3ncc4cc(C(C)(C)C)cc(F)c4c3=O)c1CC(O)C2 (racemic) | > 7 | > 7 | 29 | 0.3 | > 7 | 1 (≈ 1.5 µM) |  |  | 0% | 19 | 3.3

— ChEMBL document CHEMBL4316621, “A potent seven-membered cyclic BTK (Bruton's tyrosine Kinase) chiral inhibitor conceived by structure-based drug design to lock its bioactive conformation” (Bioorg Med Chem Lett, 2019)
